Assay results from paper PMC8164609 (Environmental Science and Pollution Research International, 2021).
pEC50: −log10 of the molar value. Values joined by “and” are separate entries in the source; they are usually repeats but may differ in a detail not shown here. Equal entries are not always repeated. Where two headings read alike, the source gives them in different places.

Key:
[1] = system: MCF-7 cells; test: MCF-7 cell proliferation assay (MTT reduction); format: cell-based, human; settings: MCF-7 cells, MTT
Description: MCF-7 cell line which is sensitive to estrogen (ERα^+) was kindly provided by Dr. Sari Tojkander (Department of Veterinary Biosciences, Faculty of Veterinary Medicine, University of Helsinki). Cells were usually grown in T25 or T75 flasks containing DMEM with or without phenol red and supplemented with 7–10% FBS and 4 mM L-glutamine at 37°C in 5% CO2/95% humidified atmosphere. In order to eliminate the disturbing effect of hormones usually present in FBS, cell culture medium supplemented with commercially available charcoal-stripped FBS and 4 mM L-glutamine (SF medium) was used for experiments.
The effect of EEDCs on the proliferation of MCF-7 cells was assessed as previously described by measuring the capacity of the cells in each well to reduce MTT reagent (Van Meeuwen et al. [2007]). Approximately 5000 cells/200 μL of SF medium containing DMEM without phenol red, 5% charcoal-stripped FBS, and 4 mM L-glutamine were seeded per well in a 96-well cell culture plate. On day 2, cells were treated with the SF medium containing test compounds or vehicle. The final concentration of the solvents DMSO and EtOH was lower than 0.1%. On day 5, the SF medium containing test compounds or vehicle were refreshed. On day 8, cells were washed with PBS twice and then incubated with the SF medium containing 1 mg/mL MTT reagent for 1 h. The ability of MCF-7 cells to reduce MTT was measured at the reference wavelength of 595 nm using a microplate reader (Multiskan Ascent, Thermo Fisher Scientific). All the exposures were in triplicate.
The dose-response curves of test samples were plotted against logarithmic-transformed concentrations.

[2] = system: MCF-7 cells; test: In vitro micronucleus assay for cytokinesis block; format: cell-based, human; settings: 24 h; for Micronuclei per 1000 binucleated cells, Replicates: single replicate values
Description: The genotoxicity of EEDCs to MCF-7 cells was assessed by the in vitro micronucleus assay for cytokinesis block. MCF-7 cells were seeded at a density of 5×10^4/well in a 12-well plate in SF medium containing DMEM, 7% charcoal-stripped FBS and 4 mM L-glutamine. These cells were treated with test compounds or the positive control for 24 h. Then, cells were washed twice with PBS, treated with 2 μg/mL cytochalasin B, and incubated for 1.5–2 normal cell cycle lengths (~24 h for MCF-7 cells). Finally, cells were washed with PBS and fixed with 4% paraformaldehyde for 10–15 min (in PBS, pH 6.9). Before staining cells with 5% Giemsa stain for 20 min, plates were washed again with PBS and dried. The frequency of micronuclei per 1000 binucleated cells was counted for each well, and the ratio of micronucleus frequency in treated vs. control cells was defined as fold induction. Cells in mitosis were omitted.

[3] = system: human lymphocytes; settings: MTT, cited from earlier work

Structure (SMILES): O=C([O-])C1=NN(c2ccc(S(=O)(=O)[O-])cc2)C(=O)C1N=Nc1ccc(S(=O)(=O)[O-])cc1.[Na+].[Na+].[Na+] (stereo not shown) [tartrazine]
- efficacy (maximum induction of cell growth) compared with 17β-estradiol [1]: about one third
- pEC50 ([1]; hormone-depleted medium, read-out: EC50 (proliferative effect)): 8.13
- Fold (micronucleus frequency treated vs. control) ([2]; 10^−7 M): 2.81
- Micronuclei per 1000 binucleated cells, Average ([2]; 10^−7 M): 29 per 1000 binucleated cells
- Micronuclei per 1000 binucleated cells, Replicates ([2]; 10^−7 M): 29 per 1000 binucleated cells and 31 per 1000 binucleated cells and 27 per 1000 binucleated cells
- Fold (micronucleus frequency treated vs. control) ([2]; 10^−8 M): 2.10
- Micronuclei per 1000 binucleated cells, Average ([2]; 10^−8 M): 21.67 per 1000 binucleated cells
- Micronuclei per 1000 binucleated cells, Replicates ([2]; 10^−8 M): 21 per 1000 binucleated cells and 19 per 1000 binucleated cells and 25 per 1000 binucleated cells
- cytotoxicity to human lymphocytes ([3]; 0.25–64 mM, ref Soares et al. [2015]): not cytotoxic
- cytotoxicity to human lymphocytes ([3]; 4 and 8 mM, ref Mpountoukas et al. [2010]): cytotoxic
